One test has as its system P. aeruginosa R1023. The experiment in a line: In vivo efficacy, whole-body infected mouse model, Ceftazidime-resistant bacteria.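 On Survival rate: each column one dose of 5 10 20 or 40 mg/kg given sc at 1 h and 4 h.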 Further details: species or system ICR mouse. The settings on record: for Survival rate: subcutaneous 1 h and 4 h after infection, P. aeruginosa R1023 (2 × 10^6 CFU/mouse), four days. The protocol: (§1) Pharmaceutical efficacy of the cephalosporin derivative compounds according to the present invention was evaluated in a whole-body infected mouse model. Tables 3 and 4 show survival rate and ED50 values for the two compounds with excellent antibacterial activity with regard to an infected mouse by a drug-sensitive bacteria and a drug-resistant bacteria.
(§2) Test animals: 3 week old male ICR mouse, weight 18˜22 g; 5 mice/group.
(§3) Lab conditions: Temperature of 23±2° C.; humidity of 55±20%.
(§4) Administration method: Inducing whole-body infection by bacterial solution followed by subcutaneous injection (0.2 mL) after 1 hour and 4 hours.
(§5) Test method: Cultured bacteria were diluted with 0.9% NaCl to prepare a bacterial solution having a concentration that is 5 to 10 times of […]. 0.5 mL of bacterial solution was injected through abdominal cavity to induce whole-body infection. Test compounds were administered in four different amounts, which were designed considering in vitro MIC values of the test bacteria. After 1 hour and 4 hours, the four different amounts of the test compounds were subcutaneously administered. Survival rates were measured for four days and ED50 values were calculated according to the Probit method.

Another test relates to P. aeruginosa 1912E. The experiment in a line: In vivo efficacy, whole-body infected mouse model, Ceftazidime-sensitive bacteria. Further details: species or system ICR mouse. As to conditions: P. aeruginosa 1912E (2 × 10^6CFU/mouse); for Survival rate: four days. As for the experimental part:
as §1, §2, §3, §4, §5

The results in this text go back to patent publication US9630977B2, “Cephalosporin derivatives and pharmaceutical compositions thereof” (Legochem Biosciences, Inc., priority 2011, dated 2017).

By ED50 is commonly meant the dose that gives a 50% effect, or the effect in half of the subjects.

Each structure is given as a SMILES string.

`C[C@H](O/N=C(\C(=O)N[C@@H]1C(=O)N2C(C(=O)[O-])=C(C[n+]3cnc(N)c(NCCNC(=O)c4cc(=O)c(O)cn4O)c3)CSC12)c1nc(N)sc1Cl)C(=O)O` (some centres unmarked) [Compound 4]: in the test on P. aeruginosa R1023 (Pseudomonas aeruginosa, sc, Probit method, subcutaneous, mouse infected by Ceftazidime-resistant P. aeruginosa R1023), the ED50 was determined as 10 mg/kg. The Survival rate in the test with P. aeruginosa R1023 (administered amount 5 mg/kg) was found to be 40%; in the test with P. aeruginosa R1023 (administered amount 10 mg/kg), 40%; in the test with P. aeruginosa R1023 (administered amount 20 mg/kg), 80%; in the test on P. aeruginosa R1023 (administered amount 40 mg/kg), 100%. Moreover, in the test on P. aeruginosa R1023 (whole-body infected mice by the drug-resistant bacteria), the “pharmaceutical efficacy (in words)” value was “much greater than that of Ceftazidime”.

Consider `CC(C)(O/N=C(\C(=O)N[C@@H]1C(=O)N2C(C(=O)[O-])=C(/C=C/C[n+]3cnc(N)c(NCCNC(=O)c4cc(=O)c(O)cn4O)c3)CSC12)c1csc(N)n1)C(=O)O` (some centres unmarked) [Compound 8], for which the Survival rate is given as 60% with P. aeruginosa 1912E (2.5 mg/kg subcutaneous after 1 hour and 4 hours); 80% in the test with P. aeruginosa 1912E (5 mg/kg subcutaneous after 1 hour and 4 hours); 100% in the test with P. aeruginosa 1912E (10 mg/kg subcutaneous after 1 hour and 4 hours); 100% in the test on P. aeruginosa 1912E (20 mg/kg subcutaneous after 1 hour and 4 hours). Moreover, the ED50 in the test on P. aeruginosa 1912E (Pseudomonas aeruginosa, sc, subcutaneous, Probit method) stood at 1.25 mg/kg.
